Measured values published in article PMC10460880, “Cathepsin K‐Activated Probe for Fluoro‐Photoacoustic Imaging of Early Osteolytic Metastasis” (Advanced Science, 2023).

Assays:
[1] = Hydroxyapatite (HA) adsorption assay (in vitro bone binding); details: probe 10 μM, HA 10 mg/mL, 37 °C, fluorescence of precipitate
Description: In Vitro bone-binding and CTSK activation assay. Hydroxyapatite (HA) was used as a substitute for bone in vitro to evaluate the bone-binding ability of CTSK-APPA and CTSK-APP. CTSK-APPA or CTSK-APP (10 μM) was mildly stirred with HA (10 mg/mL) at 37 °C for different times (0, 10, 30, 60, and 120 min). The mixture was centrifugated at 4000 g for 5 min and then washed with a 10-fold excess of PBS (1×) three times. The efficiency of HA binding was determined from the fluorescence intensities of the precipitation according to the equation: (F – Fblank)/(F0 – Fblank)*100%, where F represents the fluorescence intensity of the precipitation incubated with HA for a determined time, and Fblank represents the blank fluorescence intensity. […]

OCs = experiment: Cell selectivity experiment, osteoclasts; assay type: cell-based; details: n = 3
cathepsin K (CTSK) = molecular target: T1, cathepsin K (CTSK) (Homo sapiens, UniProt P43235); experiment: In vitro CTSK activation of probes (UV-vis, fluorescence, PA); assay type: biochemical
T1 sequence (P43235 115-329): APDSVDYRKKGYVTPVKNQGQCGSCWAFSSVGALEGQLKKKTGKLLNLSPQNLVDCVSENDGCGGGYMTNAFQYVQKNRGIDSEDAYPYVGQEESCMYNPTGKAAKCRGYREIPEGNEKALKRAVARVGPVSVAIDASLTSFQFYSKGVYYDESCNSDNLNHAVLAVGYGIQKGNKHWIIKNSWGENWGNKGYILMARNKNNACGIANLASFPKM
Description: radiography (DR), and fluorescence imaging were carried out by using an IVIS Spectrum imaging system (PerkinElmer). Photoacoustic (PA) imaging was obtained on a multispectral optoacoustic tomography (MSOT) scanner (iThera Medical). Computed tomography (CT) imaging was recorded on single-photon emission computed tomography imaging system (Olympus). Magnetic resonance (MR) imaging was recorded on a preclinical magnetic resonance solution system (MR solutions).
In vitro analysis of cathepsin K (CTSK) activation, selectivity, and sensitivity studies.
Probe CTSK-APPA, D-CTSK-APPA, or CTSK-APP (10 μM) was incubated with CTSK in MES buffer (50 mM, pH 6.0) containing 0.1% DMSO, 2 mM ethylene diamine tetraacetic acid (EDTA), 4 mM dithiothreitol (DTT) and 0.15% chondroitin sulfate (CS) at 37 °C for 1 h. After incubation at the indicated time, UV-Vis spectra, fluorescence spectra, fluorescence images, and PA images of the solutions were recorded. Probe CyP (10 μM) incubated with CTSK (200 ng/mL) for 1 h was further analyzed by HPLC. For selectivity study, CTSK-APPA (10 μM) in a 96-well plate was incubated with CTSK (100 ng/mL), CTSB (100 ng/mL), FAP-α (9×10-4 U/mL), Caspase-3 (100 ng/mL), APN (100 ng/mL), GGT (0.1 U/mL), ALP (0.1 U/mL), ACE (1×10-3 U/mL), and trypsin (10 U/L) at […] for 1 h. […] The limit of detection was determined from emission intensities according to the equation: 3δ/k, where δ represents the standard deviation of blank, and k represents the slope of the fitting plot of emission intensities. Fluorescence images were captured by using the IVIS Spectrum imaging system with excitation at 660 ± 10 nm and emission at 710 ± 10 nm. […]
Kinetic assay. […] Fluorescence intensities of solution were measured for quantification analyses by a microplate reader (BioTek, Synergy 2) with excitation at 690 nm and emission at 720 nm. The kinetic parameters were calculated according to the Michaelis-Menten equation shown below: V = Vmax×[S]/(Km + [S]), where V is initial velocity, and [S] is substrate concentration. […]

[2] = Fluorescence quantum yield and molar extinction coefficient; assay type: physicochemical; details: MES buffer 50 mM pH 6.0, 0.1% DMSO
Description: Determination of the fluorescence quantum yield and molar extinction coefficient.
Fluorescence quantum yield (Φf) was determined by using ICG (Φf = 0.13 in DMSO) as a fluorescence standard. The quantum yield was calculated using the following equation: ΦF(X) = ΦF(S) (ASFX / AXFS) (nX / nS)2, Where ΦF is the fluorescence quantum yield, A is the absorbance at the excitation wavelength, F is the area under the corrected emission curve, and n is the refractive index of the solvents used. Subscripts S and X refer to the standard and to the unknown, respectively. The excitation wavelength was at 690 nm while keeping the absorption below 0.05. To calculate the molar extinction coefficient (ε), the absorption at 690 nm of different concentrations of the CTSK-APPA before or after CTSK cleavage (0, 0.5, 1, 2, 5, 10 μM) was measured. According to the Lambert-Beer law, the extinction coefficient was the slope of the fitted curve between concentration and absorption. Both fluorescence quantum yield and extinction coefficient were measured in MES buffer (50 mM, pH 6.0) containing 0.1% DMSO. […]

HA-binding efficiency after 30 min [1]: approximately 96%
incubation time until absorption at 690 nm and fluorescence at 720 nm reach plateau (cathepsin K (CTSK); incubation with CTSK): ≈ 60 min
fluorescence on/off ratio at 720 nm (cathepsin K (CTSK); probe 10 μM + CTSK, MES buffer 50 mM pH 6.0, 0.1% DMSO, 37 °C, 1 h, Ex 690 nm, n = 3): ~20.9
enhancement of photoacoustic signal (cathepsin K (CTSK); probe 10 μM + CTSK, MES buffer pH 6.0, 37 °C, 1 h, irradiated at 700 nm, n = 3): 5.2 fold
Substance: Cbz‐Leu‐Arg‐OH [CTSK-APPA]
NIR fluorescence after incubation with OCs (OCs): strong NIR fluorescence signals
fluorescence quantum yield (Φf) after CTSK cleavage ([2]; ICG standard, Ex 690 nm): 3.5%
fluorescence quantum yield (Φf) before CTSK cleavage ([2]; ICG standard, Ex 690 nm): 0.5%
molar extinction coefficient ε after CTSK cleavage ([2]; absorption at 690 nm, 0-10 μM): 50230 M⁻¹ cm⁻¹
molar extinction coefficient ε before CTSK cleavage ([2]; absorption at 690 nm, 0-10 μM): 28580 M⁻¹ cm⁻¹
